According to US20220112479A1, “COMPOUNDS STABILIZING AMYLASES IN LIQUIDS” (BASF SE, priority 2018, published 2022):

Columns and labels:
Assay type in all cases: biochemical
Amylase = assay: amylase storage stability in liquid laundry formulation (pNP release from Ethyliden-blocked-pNPG7); parameters: key: % of activity in reference formulation at time 0; conditions: 2.5 wt % component (a), storage at 37° C.
Experimental: (§1) The storage stability of amylase was assessed at 37° C.
Base test formulations were manufactured by making base formulations VI to IX by mixing the components according to Table 4.
(§2) Amylase activity at certain points in time as indicated in Table 5 was measured quantitatively by the release of the chromophore para-nitrophenol (pNP) from the substrate (Ethyliden-blocked-pNPG7, Roche Applied Science 10880078103). The alpha-amylase degrades the substrate into smaller molecules and α-glucosidase (Roche Applied Science 11626329103), which is present in excess compared to the amylase, process these smaller products until pNP is released; the release of pNP, measured via an increase of absorption at 405 nm, is directly proportional to the amylase activity of the sample. Amylase standard: Termamyl 120 L (Sigma 3403).
(§3) The amylolytic activity values provided were calculated referring to the value determined in the reference formulation at the time 0.
(§4) The nomenclature of formulations is as follows: the Roman number before the full stop characterizes the base formulation, the Arabian number the type of compound (A.# compound according to invention (component (a)); B.# comparative compound).

Savinase Ultra 16.0L = target: T1, Savinase Ultra 16.0L (Lederbergia lenta, UniProt P29600); assay: protease storage stability in liquid formulation (Suc-AAPF-pNA substrate); conditions: storage at 37° C.
T1 construct: purchased Sigma-Aldrich
T1 sequence (P29600 1-269): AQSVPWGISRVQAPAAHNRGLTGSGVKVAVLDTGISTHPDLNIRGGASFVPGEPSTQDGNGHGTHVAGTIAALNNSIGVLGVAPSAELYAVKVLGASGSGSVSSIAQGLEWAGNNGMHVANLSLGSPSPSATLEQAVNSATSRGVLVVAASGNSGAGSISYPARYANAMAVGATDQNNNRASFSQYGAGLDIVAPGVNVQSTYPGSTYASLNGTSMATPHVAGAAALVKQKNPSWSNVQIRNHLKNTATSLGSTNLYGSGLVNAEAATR
Method in brief: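 Savinase in liquid base formulations containing test salt, comparative compound or diethylene glycol; amounts given as active protein. Residual activity at set storage times measured with Suc-AAPF-pNA via pNA release at OD405, 20 °C. Activity expressed relative to reference formulation at time 0.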

[1] = tested on: Amy3=Stainzyme Plus L (12L); assay: amylase storage stability in liquid formulation (pNP release from Ethyliden-blocked-pNPG7); conditions: base formulation II., 1.5 wt % component (a), storage at 37° C.
Experimental: as §1
Base test formulations were manufactured by making base formulations I to V by mixing the components according to Table 1.
Amylases used: Amy1=Stainzyme, Amy2=Amplify, Amy3=Stainzyme Plus L (12L)
The respective component (a) or comparative compound was added, if applicable, to the respective base formulation in amounts as indicated in Table 1.
The amount of amylase as provided in Table 1 refers to active protein.
Water was added to accomplish the balance to 100.
as §2, with “Table 2” for “Table 5”
as §3, §4

Question: With `CCOC(=O)CC(O)(CC(=O)OCC)C(=O)OCC` [A.1, Triethylcitrate] as the compound, how does the “amylase activity, referring to reference formulation at time 0” value (shortened to “amylase activity, referring”) (Amylase; laundry base formulation IX. (2.5 DTPA), 3 d) read?
Answer: Its value is 98.

Question: What about the “amylase activity, referring” value (Amylase; laundry base formulation IX. (2.5 DTPA), 7 d) of the same compound?
Answer: Its value is 90.

Question: What about the “amylase activity, referring” value (Amylase; laundry base formulation IX. (2.5 DTPA), 14 d) of the same compound?
Answer: Its value is 85.

Question: What about the “amylase activity, referring” value (Amylase; laundry base formulation IX. (2.5 DTPA), 21 d) of the same compound?
Answer: Its value is 78.

Question: What about the “amylase activity, referring” value (Amylase; laundry base formulation IX. (2.5 DTPA), 28 d) of the same compound?
Answer: Its value is 70.

Question: What about the “amylase activity, referring” value (Amylase; laundry base formulation IX. (2.5 DTPA), T0) of the same compound?
Answer: The value was 99.

Question: What about the “amylase activity, referring” value (Amylase; laundry base formulation VI. (2.0 EDTA), 3 d) of the same compound?
Answer: The value was 98.

Question: What about the “amylase activity, referring” value (Amylase; laundry base formulation VI. (2.0 EDTA), 7 d) of the same compound?
Answer: Its value is 91.

Question: And the “amylase activity, referring” value (Amylase; laundry base formulation VI. (2.0 EDTA), 14 d)?
Answer: The value was 86.

Question: And the “amylase activity, referring” value (Amylase; laundry base formulation VI. (2.0 EDTA), 21 d)?
Answer: Its value is 81.

Question: And the “amylase activity, referring” value (Amylase; laundry base formulation VI. (2.0 EDTA), 28 d)?
Answer: Its value is 73.

Question: What about the “amylase activity, referring” value (Amylase; laundry base formulation VI. (2.0 EDTA), T0) of the same compound?
Answer: Its value is 100.

Question: And the “amylase activity, referring” value (Amylase; laundry base formulation VII. (2.0 EDTA), 3 d)?
Answer: Its value is 95.

Question: What about the “amylase activity, referring” value (Amylase; laundry base formulation VII. (2.0 EDTA), 7 d) of the same compound?
Answer: Its value is 88.

Question: What about the “amylase activity, referring” value (Amylase; laundry base formulation VII. (2.0 EDTA), 14 d) of the same compound?
Answer: The value was 79.

Question: What about the “amylase activity, referring” value (Amylase; laundry base formulation VII. (2.0 EDTA), 21 d) of the same compound?
Answer: Its value is 73.

Question: What about the “amylase activity, referring” value (Amylase; laundry base formulation VII. (2.0 EDTA), 28 d) of the same compound?
Answer: The value was 68.

Question: And the “amylase activity, referring” value (Amylase; laundry base formulation VII. (2.0 EDTA), T0)?
Answer: The value was 100.

Question: And the “amylase activity, referring” value (Amylase; laundry base formulation VIII. (2.5 DTPA, no Savinase), 3 d)?
Answer: Its value is 98.

Question: What about the “amylase activity, referring” value (Amylase; laundry base formulation VIII. (2.5 DTPA, no Savinase), 7 d) of the same compound?
Answer: The value was 93.

Question: What about the “amylase activity, referring” value (Amylase; laundry base formulation VIII. (2.5 DTPA, no Savinase), 14 d) of the same compound?
Answer: Its value is 88.

Question: And the “amylase activity, referring” value (Amylase; laundry base formulation VIII. (2.5 DTPA, no Savinase), 21 d)?
Answer: Its value is 83.

Question: What about the “amylase activity, referring” value (Amylase; laundry base formulation VIII. (2.5 DTPA, no Savinase), 28 d) of the same compound?
Answer: The value was 75.

Question: What about the “amylase activity, referring” value (Amylase; laundry base formulation VIII. (2.5 DTPA, no Savinase), T0) of the same compound?
Answer: The value was 100.

Question: And the “protease activity, referring to reference formulation at time 0” value (shortened to “protease activity, referring”) (Savinase Ultra 16.0L; base formulation I., 1.5 wt % component (a), 3 d)?
Answer: The value was 97.

Question: And the “protease activity, referring” value (Savinase Ultra 16.0L; base formulation I., 1.5 wt % component (a), 7 d)?
Answer: Its value is 94.

Question: And the “protease activity, referring” value (Savinase Ultra 16.0L; base formulation I., 1.5 wt % component (a), 14 d)?
Answer: The value was 89.

Question: What about the “protease activity, referring” value (Savinase Ultra 16.0L; base formulation I., 1.5 wt % component (a), 21 d) of the same compound?
Answer: Its value is 83.

Question: What about the “protease activity, referring” value (Savinase Ultra 16.0L; base formulation I., 1.5 wt % component (a), 28 d) of the same compound?
Answer: The value was 79.

Question: What about the “protease activity, referring” value (Savinase Ultra 16.0L; base formulation I., 1.5 wt % component (a), 42 d) of the same compound?
Answer: Its value is 67.

Question: And the “protease activity, referring” value (Savinase Ultra 16.0L; base formulation I., 1.5 wt % component (a), T0)?
Answer: Its value is 100.

Question: What about the “protease activity, referring” value (Savinase Ultra 16.0L; base formulation II., 1.5 wt % component (a), 3 d) of the same compound?
Answer: Its value is 99.

Question: What about the “protease activity, referring” value (Savinase Ultra 16.0L; base formulation II., 1.5 wt % component (a), 7 d) of the same compound?
Answer: The value was 96.

Question: And the “protease activity, referring” value (Savinase Ultra 16.0L; base formulation II., 1.5 wt % component (a), 14 d)?
Answer: The value was 90.

Question: What about the “protease activity, referring” value (Savinase Ultra 16.0L; base formulation II., 1.5 wt % component (a), 21 d) of the same compound?
Answer: The value was 85.

Question: What about the “protease activity, referring” value (Savinase Ultra 16.0L; base formulation II., 1.5 wt % component (a), 28 d) of the same compound?
Answer: Its value is 80.

Question: And the “protease activity, referring” value (Savinase Ultra 16.0L; base formulation II., 1.5 wt % component (a), 42 d)?
Answer: Its value is 69.

Question: And the “protease activity, referring” value (Savinase Ultra 16.0L; base formulation II., 1.5 wt % component (a), T0)?
Answer: The value was 100.

Question: What about the “protease activity, referring” value (Savinase Ultra 16.0L; base formulation III., 1.5 wt % component (a), 3 d) of the same compound?
Answer: The value was 99.

Question: What about the “protease activity, referring” value (Savinase Ultra 16.0L; base formulation III., 1.5 wt % component (a), 7 d) of the same compound?
Answer: Its value is 93.

Question: And the “protease activity, referring” value (Savinase Ultra 16.0L; base formulation III., 1.5 wt % component (a), 14 d)?
Answer: The value was 88.

Question: And the “protease activity, referring” value (Savinase Ultra 16.0L; base formulation III., 1.5 wt % component (a), 21 d)?
Answer: Its value is 85.

Question: What about the “protease activity, referring” value (Savinase Ultra 16.0L; base formulation III., 1.5 wt % component (a), 28 d) of the same compound?
Answer: The value was 74.

Question: What about the “protease activity, referring” value (Savinase Ultra 16.0L; base formulation III., 1.5 wt % component (a), 42 d) of the same compound?
Answer: Its value is 67.

Question: And the “protease activity, referring” value (Savinase Ultra 16.0L; base formulation III., 1.5 wt % component (a), T0)?
Answer: Its value is 100.

Question: What about the “protease activity, referring” value (Savinase Ultra 16.0L; base formulation IV., 2.0 wt % component (a), 3 d) of the same compound?
Answer: The value was 96.

Question: What about the “protease activity, referring” value (Savinase Ultra 16.0L; base formulation IV., 2.0 wt % component (a), 7 d) of the same compound?
Answer: Its value is 92.

Question: And the “protease activity, referring” value (Savinase Ultra 16.0L; base formulation IV., 2.0 wt % component (a), 14 d)?
Answer: The value was 86.

Question: What about the “protease activity, referring” value (Savinase Ultra 16.0L; base formulation IV., 2.0 wt % component (a), 21 d) of the same compound?
Answer: Its value is 80.

Question: And the “protease activity, referring” value (Savinase Ultra 16.0L; base formulation IV., 2.0 wt % component (a), 28 d)?
Answer: The value was 72.

Question: And the “protease activity, referring” value (Savinase Ultra 16.0L; base formulation IV., 2.0 wt % component (a), 42 d)?
Answer: The value was 65.

Question: What about the “protease activity, referring” value (Savinase Ultra 16.0L; base formulation IV., 2.0 wt % component (a), T0) of the same compound?
Answer: Its value is 98.

Question: What about the “protease activity, referring” value (Savinase Ultra 16.0L; base formulation V., 2.0 wt % component (a), 3 d) of the same compound?
Answer: Its value is 94.

Question: What about the “protease activity, referring” value (Savinase Ultra 16.0L; base formulation V., 2.0 wt % component (a), 7 d) of the same compound?
Answer: The value was 90.

Question: And the “protease activity, referring” value (Savinase Ultra 16.0L; base formulation V., 2.0 wt % component (a), 14 d)?
Answer: Its value is 85.

Question: What about the “protease activity, referring” value (Savinase Ultra 16.0L; base formulation V., 2.0 wt % component (a), 21 d) of the same compound?
Answer: Its value is 81.

Question: What about the “protease activity, referring” value (Savinase Ultra 16.0L; base formulation V., 2.0 wt % component (a), 28 d) of the same compound?
Answer: Its value is 75.

Question: What about the “protease activity, referring” value (Savinase Ultra 16.0L; base formulation V., 2.0 wt % component (a), 42 d) of the same compound?
Answer: Its value is 65.

Question: What about the “protease activity, referring” value (Savinase Ultra 16.0L; base formulation V., 2.0 wt % component (a), T0) of the same compound?
Answer: Its value is 99.

Question: And the “amylase activity, referring” value ([1]; 3 d)?
Answer: Its value is 100.

Question: What about the “amylase activity, referring” value ([1]; 7 d) of the same compound?
Answer: The value was 94.

Question: What about the “amylase activity, referring” value ([1]; 14 d) of the same compound?
Answer: Its value is 90.

Question: And the “amylase activity, referring” value ([1]; 21 d)?
Answer: The value was 84.

Question: What about the “amylase activity, referring” value ([1]; 28 d) of the same compound?
Answer: Its value is 77.

Question: What about the “amylase activity, referring” value ([1]; 42 d) of the same compound?
Answer: The value was 65.

Question: What about the “amylase activity, referring” value ([1]; T0) of the same compound?
Answer: Its value is 100.
